Patent US5840911A, “Imidazole derivatives, their preparation and their use as S-adenosylmethionine decarboxylase (=SAMDC) inhibitors” (Novartis AG, priority 1995, dated 1998)
Counter-ions that a name gives are not always drawn. Like-named read-outs stand apart in the source and are kept apart here.

How the values were obtained:
[1] = target: T1, S-adenosylmethionine decarboxylase (SAMDC) (Rattus norvegicus, UniProt P17708); test: Inhibition of S-adenosylmethionine decarboxylase (SAMDC); format: biochemical; conditions: read-out: IC50, inhibition of the enzyme SAMDC
T1 sequence (P17708 68-333 limits assumed): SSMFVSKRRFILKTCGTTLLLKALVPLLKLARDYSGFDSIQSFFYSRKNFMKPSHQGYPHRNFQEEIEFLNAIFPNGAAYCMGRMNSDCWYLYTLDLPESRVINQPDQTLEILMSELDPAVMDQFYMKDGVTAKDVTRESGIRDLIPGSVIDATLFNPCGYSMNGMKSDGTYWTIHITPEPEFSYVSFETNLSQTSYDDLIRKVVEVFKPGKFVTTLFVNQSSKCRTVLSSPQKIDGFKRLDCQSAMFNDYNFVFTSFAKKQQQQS
T1 sequence (P17708 1-67 limits assumed): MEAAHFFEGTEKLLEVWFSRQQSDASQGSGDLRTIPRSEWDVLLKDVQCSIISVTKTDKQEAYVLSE

[2] = test system: human T24 bladder carcinoma cells; test: Inhibition of the growth of human T24 bladder carcinoma cells; format: cell-based; conditions: 120 h, 5 days incubation, concentration at half the maximum inhibition
Procedure: The carcinoma cells (1000-1500; ATCC HB 4) are transferred to 96-well microtitre plates and are incubated overnight under the said conditions. The test compound is added in serial dilutions on day 1. The plates are incubated under the said conditions for 5 days. During that period, control cultures undergo at least 4 cell divisions. After the incubation, the cells are fixed with 3.3% (weight/volume=w/v) aqueous glutaraldehyde solution, washed with water and stained with 0.05% (w/v) aqueous methylene blue solution. After washing, the dye is eluted with 3% (w/v) aqueous hydrochloric acid. The optical density (OD) per well, which is directly proportional to the number of cells, is then measured by means of a photometer (Titertek multiskan) at 665 nm. The IC50 values are calculated by means of a computer system using the formula [formula] The IC50 value is defined as the concentration of active ingredient at which the number of cells per well at the end of the incubation period is only 50% of the number of cells in the control cultures. The inhibition of the growth of human T24 bladder carcinoma cells is measured using the method mentioned hereinbefore. The following IC50 values (concentration of the test compound at half the maximum inhibition) are determined using the following Examples: […]

[3] = test system: human T24 bladder cell carcinomas; test: Inhibition of the growth of T24 bladder carcinoma cells in vivo (nude mouse); design: species or system human; BALB/c nude mice; conditions: for T/C on i.p. administration / T/C on p.o. administration: average for 6 animals
Procedure: W. Porter (see Cancer Res. 54, 3210-3217 (1994)). Briefly, the procedure is as follows: To determine the maximum tolerable dose (MTD), the compounds according to the invention (for example dissolved in distilled water/0.9% NaCl) are injected i.p. into three mice per group. The dose is increased until the first animals die within a period of 10 days. To determine the anti-tumor activity, for example, small pieces of human T-24 bladder carcinoma cells (ATCC HTB 4) are cultured and transplanted as xenogenic transplants ("xenografts") into female BALB/c nude mice (Bomholtgarden, Copenhagen, Denmark). The anti-tumor treatment using compounds of formula I is started after at least three successive transplants. Tumor fragments weighing approximately 25 mg are transplanted into the left flank of the mouse (n=6 per group). Treatment is started as soon as the tumors have an average tumor volume of from 150 to 200 mm^3. The growth of the tumors is determined twice weekly by measuring mutually perpendicular tumor diameters. The tumor volumes are determined in the manner described by U. Regenass, H. Mett, J. Stanek, M. Muller, D. Kramer and C. W. Porter (see Cancer Res. 54 3210-3217 (1994)) and are given as relative tumor size (i.e. increase in tumor volume relative to the tumor volume at the beginning of treatment) in T/C % (percent treated/control). The test compounds are dissolved in distilled water and diluted with 3 volumes of 0.9% (w/v) NaCl in water.
Using the method mentioned hereinbefore (see also Regenass et al., Cancer Res. 54, 3210-3217 ([…])), the compound of Example 2 of the present Application is administered in accordance with the following treatment scheme to BALB/c nude mice with transplanted human T24 bladder cell carcinomas: The compound is administered p.o. (50, 25 and 12.5 mg/kg) or i.p. (12.5, 6.25 and 3.13 mg/kg). The compound is dissolved in distilled water and diluted with 3 volumes of 0.9% NaCl (w/v) in water.

[4] = Maximum tolerable dose (MTD); design: species or system mice; conditions: mouse, in vivo, read-out: maximum tolerated dose

Compound | IC50 [1] | IC50 [2] | further results
N=C(N)c1cccc2c1CCC2=NN1CCN=C1N [Example 20, 1-[4-(Amidino)-2,3-dihydro-1H-inden-1-ylideneamino]-2-amino-4,5-di-hydro-imidazole dihydrochloride] | 3.4 nM | 280 nM | –
N=C(N)c1cccc2c1CCC2=Nn1cc(-c2ccc(Cl)cc2)nc1N [Example 12, 1-[4-(Amidino)-2,3-dihydro-1H-inden-1-ylideneamino]-2-amino-4-(4-chlorophenyl)-imidazole dihydrochloride] | 6.7 nM | 1550 nM | –
COc1ccccc1-c1cn(N=C2CCc3c(C(=N)N)cccc32)c(N)n1 [Example 6, 1-[4-(Armidino)-2,3-dihydro-1H-inden-1-ylideneamino]-2-amino-4-(2-methoxyphenyl)-imidazole dihydrochloride] | 8.4 nM | 1200 nM | –
CC(C)(C)c1ccc(-c2cn(N=C3CCc4c(C(=N)N)cccc43)c(N)n2)cc1 [Example 28, 1-[4-(Amidino)-2,3-dihydro-1H-inden-1-ylideneaminol-2-amino-4-(4-tert-butylphenyl)-imidazoledihydrochloride] | 5.4 nM | 230 nM | –
N=C(N)c1cccc2c1CCC2=Nn1cc(-c2ccc3ccccc3c2)nc1N [Example 24, 1-[4-(Amidino)-2,3-dihydro-1H-inden-1-ylideneamino]-2-amino-4-(2-naphthyl)-imidazole dihydrochloride] | 7.5 nM | 2460 nM | –
N=C(N)c1cccc2c1CCC2=Nn1cc(-c2ccc(-c3ccccc3)cc2)nc1N [Example 22, 1-[4-(Amidino)-2,3-dihydro-1H-inden-1-ylideneamino]-2-amino-4-(4-bi-phenylyl)-imidazole dihydrochloride] | 11 nM | 440 nM | –
N=C(N)c1cccc2c1CCC2=Nn1ccnc1N [Example 26, 1-[4-(Amidino)-2,3-dihydro-1H-inden-1-ylideneamino]-2-amino-imidazole dihydrochloride] | – | 2150 nM | –
CCc1cn(N=C2CCc3c(C(=N)N)cccc32)c(N)n1 [Example 18, 1-[4-(Amidino)-2,3-dihydro-1H-inden-1-ylideneamino]-2-amino-4-ethyl-imidazole dihydrochloride] | 6.1 nM | 1500 nM | –
N=C(N)c1cccc2c1CCC2=Nn1cc(-c2ccc(F)cc2)nc1N [Example 16, 1-[4-(Amidino)-2,3-dihydro-1H-inden-1-ylideneamino]-2-amino-4-(4-fluoro-phenyl)-imidazole dihydrochloride] | 4 nM | 2700 nM | –
Cc1ccc(-c2cn(N=C3CCc4c(C(=N)N)cccc43)c(N)n2)cc1 [Example 14, 1-[4-(Amidino)-2,3-dihydro-1H-inden-1-ylideneamino]-2-amino-4-(4-tolyl)-imidazole dihydrochloride] | 3.4 nM | 1120 nM | –
N=C(N)c1cccc2c1CCC2=Nn1cc(-c2ccccc2)nc1N [Example 2, 1-[4-(Amidino)-2,3-dihydro-1H-inden-1: -ylideneamino]-2-amino-4-phenyl-imidazole dihydrochloride] | 2 nM | 1160 nM | T/C on i.p. administration ([3]; 3.13 mg/kg): 34%; T/C on i.p. administration ([3]; 6.25 mg/kg): 22%; T/C on i.p. administration ([3]; 12.5 mg/kg): 16%; growth of T24 bladder carcinoma cells in vivo (in words) ([3]; oral and intraperitoneal administration): inhibits the growth of T24 bladder carcinoma cells; dose-dependence of tumor growth inhibition ([3]; p.o. and i.p.): dose-dependence of the action is observed; T/C on p.o. administration ([3]; 12.5 mg/kg): 68%; T/C on p.o. administration ([3]; 25 mg/kg): 47%; T/C on p.o. administration ([3]; 50 mg/kg): 31%; MTD at 240 h ([4]; ip): 125 mg/kg; MTD at 240 h ([4]; po): > 500 mg/kg
COc1ccc(OC)c(-c2cn(N=C3CCc4c(C(=N)N)cccc43)c(N)n2)c1 [Example 8, 1-[4-(Amidino)-213-dihydro-1H-inden-1-ylideneamino]-2-amino-4-(2,5-di-methoxyphenyl)-imidazole dihydrochloride] | 8.9 nM | 1600 nM | –
COc1ccc(-c2cn(N=C3CCc4c(C(=N)N)cccc43)c(N)n2)cc1 [Example 4, 1-[4-(Amidino)-2,3-dihydro-1H-inden-1-ylideneamino]-2-amino-4-(4-methoxvphenyl)-imidazole dihydrochloride] | 3.6 nM | 2000 nM | –
COc1cccc(-c2cn(N=C3CCc4c(C(=N)N)cccc43)c(N)n2)c1 [Example 10, 1-[4-(Amidino)-2,3-dihydro-1 1H-inden-1-ylideneamino]-2-amino-4-(3-methoxyphenyl)-imidazole dihydrochloride] | 4.2 nM | 2600 nM | –
